Measurements published in publication PMC9815576, “Cell-surface protein YwfG of Lactococcus lactis binds to α-1,2-linked mannose” (PLOS ONE, 2023).
Several values for one entry are separate records, joined by “and”; a condition that tells them apart may be missing. Equal entries are not always repeated. Entries after “also recorded” stand apart in the source; their conditions may differ. Where two headings read alike, the source gives them in different places.

Tests used:
[1] = target: YwfG28–270 (L-type lectin domain of YwfG) (Lactococcus lactis subsp. lactis, UniProt S6FKX6); test: Isothermal titration calorimetry (ITC) of sugars, mannan and mannoproteins against YwfG28–270; format: binding, Lactococcus lactis subsp. lactis G50; conditions: for Interaction with YwfG28–270 observed by ITC: 100 μM YwfG28–270, 25°C; for ΔH, enthalpy change / ΔS, entropy change: YwfG28–270
From the text: (§1) A MicroCal iTC200 system (Malvern Panalytical, Almelo, Netherlands) was used to measure enthalpy changes associated with interactions between the YwfG variants and the following yeast cell-wall components: the monosaccharides D-glucose, D-galactose, D-mannose, D-fucose, N-acetyl-D-glucosamine (GlcNAc), and 2-(acetylamino)-2-deoxy-D-galactose (GalNAc) (Sigma-Aldrich); α-1,2-, α-1,3-, α-1,4-, and α-1,6-mannobiose (Dextra Laboratories, Reading, UK); mannan from S. cerevisiae (Sigma-Aldrich); and yeast mannoproteins.
(§2) A solution of YwfG variant (100 μM YwfG28–270, YwfG28–336, YwfG28–511, or MubR4 in 20 mM Tris-HCl [pH 7.5]) was placed in a 200-μL calorimeter cell, and test solution (10 mM for monosaccharides, 2 mM for monosaccharides and mannobioses, 10 mg mL^−1 for yeast mannan, OD280 1.0 for mannoproteins) was loaded into the injection syringe. The test solution was titrated into the sample cell as a sequence of 20 injections of 2-μL aliquots each. All experiments were performed at 25°C.

YwfG28–336 = test: ITC of sugars against YwfG28–336; format: binding, Lactococcus lactis subsp. lactis G50; conditions: 100 μM YwfG28–336, 25°C
From the text: as §1, §2

YwfG28–511 = test: ITC of sugars against YwfG28–511; format: binding, Lactococcus lactis subsp. lactis G50; conditions: 100 μM YwfG28–511, 25°C
From the text: as §1, §2

[2] = test system: MubR4 (YwfG residues 860–1034); test: ITC of monosaccharides against MubR4; format: binding, Lactococcus lactis subsp. lactis G50; conditions: 100 μM MubR4, 25°C
From the text: as §1, §2

yeast X2180-1A = test: Inhibition by sugars of yeast cell aggregation induced by YwfG variants; format: cell-based, Saccharomyces cerevisiae; conditions: sugar 1 mM as printed
Procedure: Saccharomyces cerevisiae X2180-1A was cultured in YPD medium to an OD600 of 0.6.

yeast cells = test: Aggregation of yeast cells by lactococcal cells; format: cell-based, Saccharomyces cerevisiae; conditions: 1 mM
Procedure: Lactococcal cells were cultured in CDMG and suspended in PBS to an OD600 of 1.0.

[3] = test system: legume (L)-type lectin–like module of SraP; set-up: method as in PMID 24901708; conditions: cited from earlier work
[4] = ITC, 25°C, 100 μM YwfG28–270 in 20 mM Tris-HCl pH 7.5, D-mannose: fixed stoichiometry (N = 1)
[5] = ITC, 25°C, 100 μM YwfG28–270 in 20 mM Tris-HCl pH 7.5, D-mannose: fixed stoichiometry (N = 1), read-out: KD, dissociation constant
[6] = ITC, 25°C, D-mannose: fixed stoichiometry (N = 1)

YwfG28–270 (L-type lectin domain of YwfG), sequence (S6FKX6 entry or part of it): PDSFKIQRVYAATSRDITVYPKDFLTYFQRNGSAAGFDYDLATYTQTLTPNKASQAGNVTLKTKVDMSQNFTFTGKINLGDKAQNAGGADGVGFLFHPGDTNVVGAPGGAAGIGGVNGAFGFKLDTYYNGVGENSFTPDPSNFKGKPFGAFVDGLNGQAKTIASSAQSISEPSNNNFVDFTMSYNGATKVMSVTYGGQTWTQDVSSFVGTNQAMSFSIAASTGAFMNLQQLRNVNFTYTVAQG

| Structure (SMILES) | Interaction with YwfG28–270 observed by ITC [1] | Interaction with YwfG28–336 observed by ITC (YwfG28–336) | Interaction with YwfG28–511 observed by ITC (YwfG28–511) | Interaction with MubR4 observed by ITC [2] | Inhibition of aggregation induced by YwfG28–336 (yeast X2180-1A) | Inhibition of aggregation induced by YwfG28–511 (yeast X2180-1A) | Inhibition of aggregation induced by L. lactis G50 (yeast cells) | N (sites), stoichiometry [1, 4] | Kd [1, 5] | ΔH, enthalpy change [1, 6] [kcal/mol] | ΔS, entropy change [1, 6] [cal/mol/deg] | Binding to the L-type lectin–like module of SraP [3] | Kd [1] [µM] |
| --- | --- | --- | --- | --- | --- | --- | --- | --- | --- | --- | --- | --- | --- |
| O=C[C@H](O)[C@@H](O)[C@@H](O)[C@H](O)CO [D-galactose] | only combination of variant and monosaccharide that showed an interaction was YwfG28–270 with D-mannose | only combination of variant and monosaccharide that showed an interaction was YwfG28–270 with D-mannose | only combination of variant and monosaccharide that showed an interaction was YwfG28–270 with D-mannose | only combination of variant and monosaccharide that showed an interaction was YwfG28–270 with D-mannose |  |  |  |  |  |  |  |  |  |
| CO[C@H]1O[C@H](CO)[C@@H](O)[C@H](O)[C@@H]1O [methyl α-D-mannoside] | only combination of variant and monosaccharide that showed an interaction was YwfG28–270 with D-mannose | only combination of variant and monosaccharide that showed an interaction was YwfG28–270 with D-mannose | only combination of variant and monosaccharide that showed an interaction was YwfG28–270 with D-mannose | only combination of variant and monosaccharide that showed an interaction was YwfG28–270 with D-mannose | inhibited | not by YwfG28–270 or YwfG28–511 was inhibited | inhibited |  |  |  |  |  |  |
| OC[C@H]1O[C@H](O[C@@H]2C(O)O[C@H](CO)[C@@H](O)[C@@H]2O)[C@@H](O)[C@@H](O)[C@@H]1O (stereo partly drawn) [α-1,2-mannobiose] | bound | No binding | No binding |  | clearly inhibited | clearly inhibited |  | 1.19 ± 0.0104 sites | 34 µM and 34.4 µM | -5.236 ± 0.06207 | 2.86 |  |  |
| CC(=O)N[C@H]1[C@H]([C@H](O)[C@H](O)CO)OC(O)(C(=O)O)C[C@@H]1O (some centres unmarked) [N-acetylneuraminic acid] |  |  |  |  |  |  |  |  |  |  |  | specifically binds |  |
| OC[C@H]1O[C@H](O[C@H]2[C@H](O)[C@@H](CO)OC(O)[C@H]2O)[C@@H](O)[C@@H](O)[C@@H]1O (stereo partly drawn) [α-1,3-mannobiose] | bound | No binding | No binding |  | weakly inhibited | weakly inhibited |  | 0.757 ± 0.148 sites | 172 ± 21 µM | -6.073 ± 1.387 | −3.15 |  |  |
| OC[C@H]1O[C@H](OC[C@H]2O[C@H](O)[C@@H](O)[C@@H](O)[C@@H]2O)[C@@H](O)[C@@H](O)[C@@H]1O [α-1,6-mannobiose] | bound | No binding | No binding |  | weakly inhibited | weakly inhibited |  | 1.21 ± 0.0839 sites | 210 ± 13 µM | -4.235 ± 0.3728 | 2.62 |  |  |
| CC(=O)N[C@@H]1[C@@H](O)[C@H](O)[C@@H](CO)O[C@@H]1O [GlcNAc, N-acetyl-D-glucosamine] | only combination of variant and monosaccharide that showed an interaction was YwfG28–270 with D-mannose | only combination of variant and monosaccharide that showed an interaction was YwfG28–270 with D-mannose | only combination of variant and monosaccharide that showed an interaction was YwfG28–270 with D-mannose | only combination of variant and monosaccharide that showed an interaction was YwfG28–270 with D-mannose |  |  |  |  |  |  |  |  |  |
| OC[C@H]1OC(O)[C@H](O)[C@@H](O)[C@@H]1O (stereo partly drawn) [D-glucose] | only combination of variant and monosaccharide that showed an interaction was YwfG28–270 with D-mannose | only combination of variant and monosaccharide that showed an interaction was YwfG28–270 with D-mannose | only combination of variant and monosaccharide that showed an interaction was YwfG28–270 with D-mannose | only combination of variant and monosaccharide that showed an interaction was YwfG28–270 with D-mannose |  |  |  |  |  |  |  |  |  |
| CC(=O)N[C@@H](C=O)[C@@H](O)[C@@H](O)[C@H](O)CO [GalNAc, 2-(acetylamino)-2-deoxy-D-galactose] | only combination of variant and monosaccharide that showed an interaction was YwfG28–270 with D-mannose | only combination of variant and monosaccharide that showed an interaction was YwfG28–270 with D-mannose | only combination of variant and monosaccharide that showed an interaction was YwfG28–270 with D-mannose | only combination of variant and monosaccharide that showed an interaction was YwfG28–270 with D-mannose |  |  |  |  |  |  |  |  |  |
| OC[C@H]1O[C@H](O[C@H]2[C@H](O)[C@H](O)C(O)O[C@@H]2CO)[C@@H](O)[C@@H](O)[C@@H]1O (stereo partly drawn) [α-1,4-mannobiose] | bound | No binding | No binding |  | weakly inhibited | weakly inhibited |  | 1.82 ± 0.171 sites | 328 ± 91 µM | -2.206 ± 0.3097 | 9.55 |  |  |
| OC[C@H]1OC(O)[C@@H](O)[C@@H](O)[C@@H]1O (stereo partly drawn) [D-mannose] | only interaction observed; also recorded: showed an interaction | only combination of variant and monosaccharide that showed an interaction was YwfG28–270 with D-mannose | only combination of variant and monosaccharide that showed an interaction was YwfG28–270 with D-mannose | only combination of variant and monosaccharide that showed an interaction was YwfG28–270 with D-mannose | inhibited | not by YwfG28–270 or YwfG28–511 was inhibited |  | (1.00) sites |  | -2.098 ± 0.08359 | 8.07 |  | 500 ± 37 |
| C[C@H]1OC(O)[C@H](O)[C@@H](O)[C@H]1O (stereo partly drawn) [D-fucose] | only combination of variant and monosaccharide that showed an interaction was YwfG28–270 with D-mannose | only combination of variant and monosaccharide that showed an interaction was YwfG28–270 with D-mannose | only combination of variant and monosaccharide that showed an interaction was YwfG28–270 with D-mannose | only combination of variant and monosaccharide that showed an interaction was YwfG28–270 with D-mannose |  |  |  |  |  |  |  |  |  |
